Measurements reported in patent publication US10577363B2, “Substituted piperidine compounds” (EPIZYME, INC., priority 2014, dated 2020).

Each compound was assayed against SMYD3 (Homo sapiens (Human), UniProt Q9H7B4) (assay: SMYD3 biochemical assay (SPA, 3H-SAM methylation of MEKK2 protein substrate)). Conditions: read-out: SMYD3 Biochem IC50 (μM)*.
Summary of the method: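 Tritium incorporation into GST-MEKK2 is counted by scintillation proximity after citric acid bead capture. Native human SMYD3 is preincubated with test compound for 30 min at room temperature at pH 8.0 (Tris-Cl, TCEP, BSG, Tween 20) before 3H-SAM and substrate are added; cold SAM at 100 uM final stops turnover.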

Row | IC50 [µM] | SMILES
1 | 0.728 | C[C@@H]1CC(NC(=O)c2cc(C3CC3)on2)CCN1C(=O)[C@H]1CCC[C@H](N)C1 (stereo partly drawn) [compound 174, N-((2R)-1-((1S,3S)-3-aminocyclohexane-1-carbonyl)-2-methylpiperidin-4-yl)-5-cyclopropylisoxazole-3-carboxamide]
2 | 0.624 | C[C@H]1CC(NC(=O)c2cc(C3CC3)on2)CCN1C(=O)CCC1CCNC1 (stereo partly drawn) [compound 176, 5-cyclopropyl-N-((2S)-2-methyl-1-(3-(pyrrolidin-3-yl)propanoyl)piperidin-4-yl)isoxazole-3-carboxamide]
3 | > 10 | C[C@H]1CC(NC(=O)c2cc(C3CC3)on2)CCN1C(=O)C1CNCC(O)C1 (stereo partly drawn) [compound 177, 5-cyclopropyl-N-((2S)-1-(5-hydroxypiperidine-3-carbonyl)-2-methylpiperidin-4-yl)isoxazole-3-carboxamide]
4 | 2.02 | C[C@H]1CC(NC(=O)c2cc(C3CC3)on2)CCN1C(=O)C1CC2(CCNC2)C1 (stereo partly drawn) [compound 178, 5-cyclopropyl-N-((2S)-2-methyl-1-(6-azaspiro[3.4]octane-2-carbonyl)piperidin-4-yl)isoxazole-3-carboxamide]
5 | 1.42 | C[C@H]1CC(NC(=O)c2cc(C3CC3)on2)CCN1C(=O)C1CC12CCNCC2 (stereo partly drawn) [compound 179, 5-cyclopropyl-N-((2S)-2-methyl-1-(6-azaspiro[2.5]octane-1-carbonyl)piperidin-4-yl)isoxazole-3-carboxamide]
6 | 0.953 | C[C@@H]1CC(NC(=O)c2cc(C3CC3)on2)CCN1C(=O)CCC1CCNC1 (stereo partly drawn) [compound 180, 5-cyclopropyl-N-((2R)-2-methyl-1-(3-(pyrrolidin-3-yl)propanoyl)piperidin-4-yl)isoxazole-3-carboxamide]
7 | 4.79 | N[C@H]1CC[C@@H](C(=O)N2CCC(NC(=O)c3cc(C4CC4)on3)CC2)C1 [compound 182, N-(1-((1R,3S)-3-aminocyclopentane-1-carbonyl)piperidin-4-yl)-5-cyclopropylisoxazole-3-carboxamide]
8 | 2.67 | C[C@@H]1C[C@@H](NC(=O)c2cc(C3CC3)on2)CCN1C(=O)CCCCN [compound 184, N-((2R,4S)-1-(5-aminopentanoyl)-2-methylpiperidin-4-yl)-5-cyclopropylisoxazole-3-carboxamide]
9 | 4.31 | C[C@@H]1C[C@@H](NC(=O)c2cc(C3CC3)on2)CCN1S(=O)(=O)Cc1ccccc1 [compound 185, N-((2R,4S)-1-(benzylsulfonyl)-2-methylpiperidin-4-yl)-5-cyclopropylisoxazole-3-carboxamide]
10 | > 10 | C[C@@H]1C[C@@H](NC(=O)c2cc(C3CC3)on2)CCN1S(=O)(=O)CC(F)(F)F [compound 186, 5-cyclopropyl-N-((2R,4S)-2-methyl-1-((2,2,2-trifluoroethyl)sulfonyl)piperidin-4-yl)isoxazole-3-carboxamide]
11 | 0.0723 | C[C@H]1C[C@H](NC(=O)c2cc(C3CC3)on2)CCN1S(=O)(=O)CCCN [compound 188, N-((2S,4R)-1-((3-aminopropyl)sulfonyl)-2-methylpiperidin-4-yl)-5-cyclopropylisoxazole-3-carboxamide]
12 | 0.352 | CC[C@@H]1CN(C(=O)[C@H]2CC[C@H](N)CC2)CC[C@@H]1NC(=O)c1cc(C2CC2)on1 [compound 190, N-((3R,4S)-1-((1r,4R)-4-aminocyclohexane-1-carbonyl)-3-ethylpiperidin-4-yl)-5-cyclopropylisoxazole-3-carboxamide]
13 | 7.08 | CCOC(=O)[C@@H]1CC(NC(=O)c2cc(C3CC3)on2)CCN1C(=O)[C@H]1CC[C@H](N)CC1 (stereo partly drawn) [compound 192, ethyl (2S)-1-((1r,4S)-4-aminocyclohexane-1-carbonyl)-4-(5-cyclopropylisoxazole-3-carboxamido)piperidine-2-carboxylate]
14 | 2.87 | C[C@@H]1CN(C(=O)CCCN)CC[C@@H]1NC(=O)c1cc(C2CC2)on1 [compound 193, N-((3R,4S)-1-(4-aminobutanoyl)-3-methylpiperidin-4-yl)-5-cyclopropylisoxazole-3-carboxamide]
15 | 1.37 | C[C@H]1CN(C(=O)CCCN)CC[C@H]1NC(=O)c1cc(C2CC2)on1 [compound 194, N-((3S,4R)-1-(4-aminobutanoyl)-3-methylpiperidin-4-yl)-5-cyclopropylisoxazole-3-carboxamide]
16 | > 10 | C[C@@H]1CN(C(=O)CCCN)CC[C@H]1NC(=O)c1cc(C2CC2)on1 [compound 195, N-((3R,4R)-1-(4-aminobutanoyl)-3-methylpiperidin-4-yl)-5-cyclopropylisoxazole-3-carboxamide]
17 | 6.91 | C[C@H]1CN(C(=O)CCCN)CC[C@@H]1NC(=O)c1cc(C2CC2)on1 [compound 196, N-((3S,4S)-1-(4-aminobutanoyl)-3-methylpiperidin-4-yl)-5-cyclopropylisoxazole-3-carboxamide]

Row | IC50 [µM] | SMILES
18 | > 10 | NCCCC(=O)N1CCC(NC(=O)c2cc(C3CC3)on2)C(F)(F)C1 (stereo not drawn) [compound 197, N-(1-(4-aminobutanoyl)-3,3-difluoropiperidin-4-yl)-5-cyclopropylisoxazole-3-carboxamide]
19 | 0.83 | NCCCC(=O)N1CCC(NC(=O)c2cc(C3CC3)on2)C2(CC2)C1 (stereo not drawn) [compound 198, N-(5-(4-aminobutanoyl)-5-azaspiro[2.5]octan-8-yl)-5-cyclopropylisoxazole-3-carboxamide]
20 | 2.23 | C[C@H]1CC(NC(=O)c2cc(C3CC3)on2)CCN1C(=O)N1CCC(N)CC1 (stereo partly drawn) [compound 201, N-((2S)-1-(4-aminopiperidine-1-carbonyl)-2-methylpiperidin-4-yl)-5-cyclopropylisoxazole-3-carboxamide]
21 | 0.379 | CC1C(NC(=O)c2cc(C3CC3)on2)CCN(C(=O)[C@H]2CC[C@H](N)CC2)C1C (stereo partly drawn) [compound 203, N-(1-((1r,4r)-4-aminocyclohexane-1-carbonyl)-2,3-dimethylpiperidin-4-yl)-5-cyclopropylisoxazole-3-carboxamide]
22 | 4.68 | C[C@H]1CC(NC(=O)c2cc(C3CC3)on2)CCN1C(=O)CC1(CN)CCC1 (stereo partly drawn) [compound 204, N-((2S)-1-(2-(1-(aminomethyl)cyclobutyl)acetyl)-2-methylpiperidin-4-yl)-5-cyclopropylisoxazole-3-carboxamide]
23 | 1.99 | C[C@@H]1CC(NC(=O)c2cc(C3CC3)on2)CCN1C(=O)CC1(CN)CCC1 (stereo partly drawn) [compound 205, N-((2R)-1-(2-(1-(aminomethyl)cyclobutyl)acetyl)-2-methylpiperidin-4-yl)-5-cyclopropylisoxazole-3-carboxamide]
24 | 1.59 | CC1CNCCC1CC(=O)N1CCC(NC(=O)c2cc(C3CC3)on2)C[C@@H]1C (stereo partly drawn) [compound 206, 5-cyclopropyl-N-((2S)-2-methyl-1-(2-(3-methylpiperidin-4-yl)acetyl)piperidin-4-yl)isoxazole-3-carboxamide]
25 | 2.6 | C[C@H]1CC(NC(=O)c2cc(C3CC3)on2)CCN1C(=O)C1(F)CCNCC1 (stereo partly drawn) [compound 207, 5-cyclopropyl-N-((2S)-1-(4-fluoropiperidine-4-carbonyl)-2-methylpiperidin-4-yl)isoxazole-3-carboxamide]
26 | 3.82 | C[C@@H]1C[C@@H](NC(=O)c2cc(C3CC3)on2)CCN1C(=O)CCCN [compound 208, N-((2R,4S)-1-(4-aminobutanoyl)-2-methylpiperidin-4-yl)-5-cyclopropylisoxazole-3-carboxamide]
27 | 0.1 | C[C@@H]1C[C@@H](NC(=O)c2cc(C3CC3)on2)CCN1S(=O)(=O)CCCN [compound 209, N-((2R,4S)-1-((3-aminopropyl)sulfonyl)-2-methylpiperidin-4-yl)-5-cyclopropylisoxazole-3-carboxamide]
28 | 0.838 | C[C@@H]1C[C@H](NC(=O)c2cc(C3CC3)on2)CCN1C(=O)CCCCN [compound 212, N-((2R,4R)-1-(5-aminopentanoyl)-2-methylpiperidin-4-yl)-5-cyclopropylisoxazole-3-carboxamide]
29 | > 10 | C[C@@H]1C[C@@H](NC(=O)c2cc(C3CC3)on2)CCN1S(=O)(=O)C1CC1 [compound 213, 5-cyclopropyl-N-((2R,4S)-1-(cyclopropylsulfonyl)-2-methylpiperidin-4-yl)isoxazole-3-carboxamide]
30 | > 10 | CNS(=O)(=O)N1CC[C@H](NC(=O)c2cc(C3CC3)on2)C[C@H]1C [compound 214, 5-cyclopropyl-N-((2R,4S)-2-methyl-1-(N-methylsulfamoyl)piperidin-4-yl)isoxazole-3-carboxamide]
31 | > 10 | COCCS(=O)(=O)N1CC[C@H](NC(=O)c2cc(C3CC3)on2)C[C@H]1C [compound 215, 5-cyclopropyl-N-((2R,4S)-1-((2-methoxyethyl)sulfonyl)-2-methylpiperidin-4-yl)isoxazole-3-carboxamide]
32 | > 10 | C[C@@H]1C[C@H](NC(=O)c2cc(C3CC3)on2)CCN1S(=O)(=O)C1CC1 [compound 216, 5-cyclopropyl-N-((2R,4R)-1-(cyclopropylsulfonyl)-2-methylpiperidin-4-yl)isoxazole-3-carboxamide]
33 | 6.76 | CNS(=O)(=O)N1CC[C@@H](NC(=O)c2cc(C3CC3)on2)C[C@H]1C [compound 217, 5-cyclopropyl-N-((2R,4R)-2-methyl-1-(N-methylsulfamoyl)piperidin-4-yl)isoxazole-3-carboxamide]

Row | SMILES | IC50 [µM]
34 | N[C@H]1CC[C@H](C(=O)N2C3CCC2CC(NC(=O)c2cc(C4CC4)on2)C3)CC1 (stereo partly drawn) [compound 191, N-(8-((1r,4r)-4-aminocyclohexane-1-carbonyl)-8-azabicyclo[3.2.1]octan-3-yl)-5-cyclopropylisoxazole-3-carboxamide] | > 10
35 | NCCCC(=O)N1C2CCC1CC(NC(=O)c1cc(C3CC3)on1)C2 (stereo not drawn) [compound 199, N-(8-(4-aminobutanoyl)-8-azabicyclo[3.2.1]octan-3-yl)-5-cyclopropylisoxazole-3-carboxamide] | 0.678
36 | NCCCC(=O)N1C2CCCC1CC(NC(=O)c1cc(C3CC3)on1)C2 (stereo not drawn) [compound 211, N-(9-(4-aminobutanoyl)-9-azabicyclo[3.3.1]nonan-3-yl)-5-cyclopropylisoxazole-3-carboxamide] | 5.85
